Here are results for 4 molecules from BindingDB's records for patent US20240316047 (Accent Therapeutics, 2024).

The target in the assay is ATP-dependent RNA helicase A (UniProt Q08211). The assay can be described thus: Biochemical Assay.
ATP-dependent RNA helicase A, sequence (Q08211 whole entry): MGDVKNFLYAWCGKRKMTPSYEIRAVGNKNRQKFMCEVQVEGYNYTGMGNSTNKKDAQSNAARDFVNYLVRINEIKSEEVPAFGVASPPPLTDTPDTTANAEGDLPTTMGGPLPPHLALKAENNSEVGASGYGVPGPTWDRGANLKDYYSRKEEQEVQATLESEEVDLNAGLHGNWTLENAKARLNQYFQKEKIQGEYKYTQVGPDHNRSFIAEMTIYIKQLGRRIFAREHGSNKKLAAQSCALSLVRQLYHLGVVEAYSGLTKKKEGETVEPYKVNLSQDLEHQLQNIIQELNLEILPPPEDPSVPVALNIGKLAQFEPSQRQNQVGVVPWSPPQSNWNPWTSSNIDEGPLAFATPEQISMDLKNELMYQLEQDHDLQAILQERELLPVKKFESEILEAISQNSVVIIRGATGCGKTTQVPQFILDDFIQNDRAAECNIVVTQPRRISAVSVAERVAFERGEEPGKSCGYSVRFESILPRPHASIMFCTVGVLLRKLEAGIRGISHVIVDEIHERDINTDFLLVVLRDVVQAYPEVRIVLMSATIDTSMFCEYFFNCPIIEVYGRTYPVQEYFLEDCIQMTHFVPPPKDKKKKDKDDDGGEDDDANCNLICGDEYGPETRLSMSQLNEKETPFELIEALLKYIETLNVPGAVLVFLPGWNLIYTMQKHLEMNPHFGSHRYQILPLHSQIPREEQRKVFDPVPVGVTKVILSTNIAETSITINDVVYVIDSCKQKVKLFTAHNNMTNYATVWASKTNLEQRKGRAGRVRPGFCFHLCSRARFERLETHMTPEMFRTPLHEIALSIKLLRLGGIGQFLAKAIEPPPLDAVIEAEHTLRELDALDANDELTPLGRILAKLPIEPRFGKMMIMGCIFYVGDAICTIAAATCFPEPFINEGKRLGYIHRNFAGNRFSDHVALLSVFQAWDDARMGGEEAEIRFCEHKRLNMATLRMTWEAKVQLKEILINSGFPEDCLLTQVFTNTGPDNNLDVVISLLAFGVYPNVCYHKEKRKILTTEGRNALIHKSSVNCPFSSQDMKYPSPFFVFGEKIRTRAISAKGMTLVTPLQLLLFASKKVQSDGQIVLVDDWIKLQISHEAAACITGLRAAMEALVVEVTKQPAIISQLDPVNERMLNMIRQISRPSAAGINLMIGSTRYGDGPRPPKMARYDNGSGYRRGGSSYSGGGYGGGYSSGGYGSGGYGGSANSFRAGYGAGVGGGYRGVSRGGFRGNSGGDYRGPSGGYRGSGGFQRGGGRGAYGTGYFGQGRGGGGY

In the case of `Cc1cc(C(=O)Nc2cc(Cl)cc(NS(C)(=O)=O)c2)cn1-c1ccccc1` [US20240316047, Example 129], the concentration for half-maximal inhibition (IC50) was 38.4 nM.
The result for `CC(C)(C)OC(=O)N1CCC(n2cc(C(=O)Nc3cc(Cl)cc(NS(C)(=O)=O)c3)cn2)CC1` [US20240316047, Example 136] reads 234 nM; that for `Cc1cccnc1-c1cc(C(=O)Nc2cc(Cl)cc(NS(C)(=O)=O)c2)cn1CC(F)F` [US20240316047, Example 143], 51.1 nM; that for `Cc1sc(C(=O)Nc2cc(Cl)cc(NS(C)(=O)=O)c2)cc1-c1ncc(N2CCC3(C2)CC3(F)F)cn1` (centres undefined) [US20240316047, Example 491], 10.8 nM.

What is called IC50 is the concentration at which inhibition is half-maximal. A low value points to greater potency.
